Test results as given in paper PMC5218480 (PLoS ONE, 2017).

System: MV-4-11 cells
Test: Gene expression microarray analysis (Affymetrix PrimeView) and GSEA
Assay type: cell-based, human
Set-up: RFU PODN (11730768_x_at) / Fold change /veh PODN (11730768_x_at) / RFU LINC00158 (11744669_a_at) / Fold change /veh LINC00158 (11744669_a_at) / RFU DUSP10 (11751237_a_at) / Fold change /veh DUSP10 (11751237_a_at) / RFU ID3 (11757404_x_at) / Fold change /veh ID3 (11757404_x_at) / RFU PLEKHG5 (11737974_s_at) / Fold change /veh PLEKHG5 (11737974_s_at) / RFU LRRC4B (11730491_at) / Fold change /veh LRRC4B (11730491_at) / RFU GIMAP4 (11747438_a_at) / Fold change /veh GIMAP4 (11747438_a_at) / RFU KRT8 (11758183_x_at) / Fold change /veh KRT8 (11758183_x_at) / RFU CNN1 (11734310_a_at) / Fold change /veh CNN1 (11734310_a_at) / RFU VPS37D (11726825_at) / Fold change /veh VPS37D (11726825_at) / RFU C10orf10 (11716522_x_at) / Fold change /veh C10orf10 (11716522_x_at) / RFU KIR2DL2 /// KIR2DL4 /// KIR2DL5A /// KIR2DL5B /// KIR2DS1 /// KIR2DS2 /// KIR2DS3 /// KIR2DS4 /// KIR3DL3 /// KIR3DL3 /// KIR3DS1 (11738374_at) / Fold change /veh KIR2DL2 /// KIR2DL4 /// KIR2DL5A /// KIR2DL5B /// KIR2DS1 /// KIR2DS2 /// KIR2DS3 /// KIR2DS4 /// KIR3DL3 /// KIR3DL3 /// KIR3DS1 (11738374_at) / RFU C1QL1 (11718748_at) / Fold change /veh C1QL1 (11718748_at) / RFU TMPRSS4 (11747572_a_at) / Fold change /veh TMPRSS4 (11747572_a_at) / RFU HAMP (11756126_x_at) / Fold change /veh HAMP (11756126_x_at) / RFU RNFT2 (11725882_a_at) / Fold change /veh RNFT2 (11725882_a_at) / RFU NR4A2 (11747474_a_at) / Fold change /veh NR4A2 (11747474_a_at) / RFU ABCC12 (11746883_a_at) / Fold change /veh ABCC12 (11746883_a_at) / RFU TMEM136 (11760407_x_at) / Fold change /veh TMEM136 (11760407_x_at) / RFU CLDN22 /// WWC2 (11732394_at) / Fold change /veh CLDN22 /// WWC2 (11732394_at) / RFU HLA-DPB1 (11760878_x_at) / Fold change /veh HLA-DPB1 (11760878_x_at) / RFU SPINT1 (11716480_a_at) / Fold change /veh SPINT1 (11716480_a_at) / RFU GAP43 (11754022_s_at) / Fold change /veh GAP43 (11754022_s_at) / RFU A4GNT (11735810_at) / Fold change /veh A4GNT (11735810_at) / RFU PRB3 (11715151_x_at) / Fold change /veh PRB3 (11715151_x_at) / RFU TUBB4B (11761932_at) / Fold change /veh TUBB4B (11761932_at) / RFU CAPN14 (11732068_a_at) / Fold change /veh CAPN14 (11732068_a_at) / RFU TMCC2 (11721928_a_at) / Fold change /veh TMCC2 (11721928_a_at) / RFU IRGQ (11745062_a_at) / Fold change /veh IRGQ (11745062_a_at) / RFU FAM174B (11720279_a_at) / Fold change /veh FAM174B (11720279_a_at) / RFU TMPRSS4 (11748680_a_at) / Fold change /veh TMPRSS4 (11748680_a_at) / RFU FAM212B (11763350_a_at) / Fold change /veh FAM212B (11763350_a_at) / RFU PLEKHG5 (11743358_a_at) / Fold change /veh PLEKHG5 (11743358_a_at) / RFU ZSCAN30 (11745921_a_at) / Fold change /veh ZSCAN30 (11745921_a_at) / RFU CMKLR1 (11741424_a_at) / Fold change /veh CMKLR1 (11741424_a_at) / RFU LOC101060620 /// MAPK8IP1 (11723275_at) / Fold change /veh LOC101060620 /// MAPK8IP1 (11723275_at) / RFU SPTSSB (11747773_x_at) / Fold change /veh SPTSSB (11747773_x_at) / RFU PRSS12 (11739890_at) / Fold change /veh PRSS12 (11739890_at) / RFU BIN1 (11741810_x_at) / Fold change /veh BIN1 (11741810_x_at) / RFU WNT11 (11732464_a_at) / Fold change /veh WNT11 (11732464_a_at) / RFU C10orf10 (11716521_a_at) / Fold change /veh C10orf10 (11716521_a_at) / RFU C5orf56 (11738089_at) / Fold change /veh C5orf56 (11738089_at) / RFU CYB561 (11721691_x_at) / Fold change /veh CYB561 (11721691_x_at) / RFU ANKRD19P (11752326_a_at) / Fold change /veh ANKRD19P (11752326_a_at) / RFU OR2T12 /// OR2T33 /// OR2T8 (11738714_s_at) / Fold change /veh OR2T12 /// OR2T33 /// OR2T8 (11738714_s_at) / RFU VCAN (11748164_a_at) / Fold change /veh VCAN (11748164_a_at) / RFU JSRP1 (11732532_at) / Fold change /veh JSRP1 (11732532_at) / RFU KRTAP10-11 (11738290_x_at) / Fold change /veh KRTAP10-11 (11738290_x_at) / RFU MYO3A (11730013_a_at) / Fold change /veh MYO3A (11730013_a_at) / RFU EBF3 (11725865_a_at) / Fold change /veh EBF3 (11725865_a_at) / RFU CAMK2N1 (11719241_x_at) / Fold change /veh CAMK2N1 (11719241_x_at) / RFU C5orf56 (11738088_a_at) / Fold change /veh C5orf56 (11738088_a_at) / RFU OLFML3 (11715873_a_at) / Fold change /veh OLFML3 (11715873_a_at) / RFU LOC100653217 /// NTM (11731650_a_at) / Fold change /veh LOC100653217 /// NTM (11731650_a_at) / RFU MAPK11 (11762145_a_at) / Fold change /veh MAPK11 (11762145_a_at) / RFU FIZ1 (11724087_x_at) / Fold change /veh FIZ1 (11724087_x_at) / RFU OASL (11726364_x_at) / Fold change /veh OASL (11726364_x_at) / RFU SOX15 (11748057_x_at) / Fold change /veh SOX15 (11748057_x_at) / RFU CD79A (11719716_a_at) / Fold change /veh CD79A (11719716_a_at) / RFU HIST1H1D (11736915_at) / Fold change /veh HIST1H1D (11736915_at) / RFU CASKIN2 (11723855_a_at) / Fold change /veh CASKIN2 (11723855_a_at) / RFU LOC730098 (11760151_x_at) / Fold change /veh LOC730098 (11760151_x_at) / RFU OR4N2 (11742367_at) / Fold change /veh OR4N2 (11742367_at) / RFU PRRT2 (11749266_a_at) / Fold change /veh PRRT2 (11749266_a_at) / RFU SNX32 (11753110_a_at) / Fold change /veh SNX32 (11753110_a_at) / RFU CDHR5 (11726645_a_at) / Fold change /veh CDHR5 (11726645_a_at) / RFU RCAN1 (11760418_a_at) / Fold change /veh RCAN1 (11760418_a_at) / RFU FAM167A (11723789_a_at) / Fold change /veh FAM167A (11723789_a_at) / RFU FAM26E (11764081_at) / Fold change /veh FAM26E (11764081_at) / RFU ISYNA1 (11749810_s_at) / Fold change /veh ISYNA1 (11749810_s_at) / RFU ACY1 (11761880_at) / Fold change /veh ACY1 (11761880_at) / RFU 11764098_at / Fold change /veh 11764098_at / RFU SAMD14 (11745864_x_at) / Fold change /veh SAMD14 (11745864_x_at) / RFU NPB (11741838_a_at) / Fold change /veh NPB (11741838_a_at) / RFU TMPRSS6 (11731388_a_at) / Fold change /veh TMPRSS6 (11731388_a_at) / RFU KRTAP10-2 (11738614_at) / Fold change /veh KRTAP10-2 (11738614_at) / RFU ARHGAP8 /// PRR5-ARHGAP8 (11727945_x_at) / Fold change /veh ARHGAP8 /// PRR5-ARHGAP8 (11727945_x_at) / RFU KRTAP5-7 /// NADSYN1 (11734609_at) / Fold change /veh KRTAP5-7 /// NADSYN1 (11734609_at) / RFU RASL12 (11751679_a_at) / Fold change /veh RASL12 (11751679_a_at) / RFU CDKN2B (11736163_a_at) / Fold change /veh CDKN2B (11736163_a_at) / RFU PRF1 (11729649_at) / Fold change /veh PRF1 (11729649_at) / RFU, ZNF638 /// ZNF638-IT1 / Fold change vs veh, ZNF638 /// ZNF638-IT1 / RFU, PANK3 / Fold change vs veh, PANK3 / RFU, SH3YL1 / Fold change vs veh, SH3YL1 / RFU, ZEB2 / Fold change vs veh, ZEB2 / RFU, NRIP1 / Fold change vs veh, NRIP1 / RFU, PTTG1IP / Fold change vs veh, PTTG1IP / RFU, CAPN2 / Fold change vs veh, CAPN2 / RFU, MED14 / Fold change vs veh, MED14 / RFU, SNORA58 / Fold change vs veh, SNORA58 / RFU, C1orf63 / Fold change vs veh, C1orf63 / RFU, LRRFIP1 / Fold change vs veh, LRRFIP1 / RFU, NDUFAF7 / Fold change vs veh, NDUFAF7 / RFU, SLC12A2 / Fold change vs veh, SLC12A2 / RFU, IBTK / Fold change vs veh, IBTK / RFU, ESF1 / Fold change vs veh, ESF1 / Fold change vs veh, TMEM50B / RFU, TAOK1 / Fold change vs veh, TAOK1 / RFU, ACBD3 / Fold change vs veh, ACBD3 / RFU, TMA16 / Fold change vs veh, TMA16 / RFU, RWDD3 / Fold change vs veh, RWDD3 / RFU, BCAT1 / Fold change vs veh, BCAT1 / RFU, EDEM3 / Fold change vs veh, EDEM3 / RFU, TMEM33 / Fold change vs veh, TMEM33 / RFU, WDR75 / Fold change vs veh, WDR75 / RFU, AHCTF1 / Fold change vs veh, AHCTF1 / RFU, TFRC / Fold change vs veh, TFRC / RFU, ZDHHC17 / Fold change vs veh, ZDHHC17 / RFU, NOM1 / Fold change vs veh, NOM1 / RFU, ARL8B / Fold change vs veh, ARL8B / RFU, ZBTB11 / Fold change vs veh, ZBTB11 / RFU, TAMM41 / Fold change vs veh, TAMM41 / RFU, KIAA1704 /// LOC100996395 / Fold change vs veh, KIAA1704 /// LOC100996395 / RFU, ING1 / Fold change vs veh, ING1 / RFU, TRMT61B / Fold change vs veh, TRMT61B / RFU, FUBP3 / Fold change vs veh, FUBP3 / RFU, TP53 / Fold change vs veh, TP53 / RFU, TNKS2 / Fold change vs veh, TNKS2 / RFU, ZFP14 / Fold change vs veh, ZFP14 / RFU, ACTR2 / Fold change vs veh, ACTR2 / RFU, PPP3R1 / Fold change vs veh, PPP3R1 / RFU, PIK3R1 / Fold change vs veh, PIK3R1 / RFU, HNRNPA1 / Fold change vs veh, HNRNPA1 / RFU, RNF170 / Fold change vs veh, RNF170 / RFU, ZNF28 / Fold change vs veh, ZNF28 / RFU, RNGTT / Fold change vs veh, RNGTT / RFU, OGT / Fold change vs veh, OGT / RFU, BRD1 / Fold change vs veh, BRD1 / RFU, MARS / Fold change vs veh, MARS / RFU, ZNF655 / Fold change vs veh, ZNF655 / RFU, FAHD1 / Fold change vs veh, FAHD1 / RFU, BDP1 / Fold change vs veh, BDP1 / RFU, LRRCC1 / Fold change vs veh, LRRCC1 / RFU, ARID1A / Fold change vs veh, ARID1A / RFU, ZNF146 / Fold change vs veh, ZNF146 / RFU, ZNF330 / Fold change vs veh, ZNF330 / RFU, GPN3 / Fold change vs veh, GPN3 / RFU, C9orf123 / Fold change vs veh, C9orf123 / RFU, N4BP2L2 / Fold change vs veh, N4BP2L2 / RFU, ARFIP1 / Fold change vs veh, ARFIP1 / RFU, FAM179B / Fold change vs veh, FAM179B / RFU, BCL10 / Fold change vs veh, BCL10 / RFU, UHRF1BP1L / Fold change vs veh, UHRF1BP1L / RFU, BET1 / Fold change vs veh, BET1 / RFU, CNOT2 / Fold change vs veh, CNOT2 / RFU, ZNF268 / Fold change vs veh, ZNF268 / Fold change vs veh, ZNF507 / RFU, DGCR2 / Fold change vs veh, DGCR2 / RFU, WDSUB1 / Fold change vs veh, WDSUB1 / Fold change vs veh, HSP90B1 /// MIR3652 / RFU, ADSS / Fold change vs veh, ADSS / RFU, GK / Fold change vs veh, GK / RFU, ZNF148 / Fold change vs veh, ZNF148 / RFU, TAF9 / Fold change vs veh, TAF9 / RFU, SLC1A5 / Fold change vs veh, SLC1A5 / RFU, SLMO2 / Fold change vs veh, SLMO2 / RFU, ABCC4 / Fold change vs veh, ABCC4 / RFU, LOC101060439 /// RAP1B / Fold change vs veh, LOC101060439 /// RAP1B / RFU, RFX7 / Fold change vs veh, RFX7 / RFU, GTPBP10 / Fold change vs veh, GTPBP10 / RFU, CNEP1R1 / Fold change vs veh, CNEP1R1 / RFU, BIVM-ERCC5 /// ERCC5 / Fold change vs veh, BIVM-ERCC5 /// ERCC5 / RFU, ILF3 / Fold change vs veh, ILF3 / RFU 11762660_at / Fold change /veh 11762660_at / RFU VCAN (11757783_s_at) / Fold change /veh VCAN (11757783_s_at) / RFU DDX43 (11728927_at) / Fold change /veh DDX43 (11728927_at) / RFU KRT8 (11758188_x_at) / Fold change /veh KRT8 (11758188_x_at) / RFU NKD1 (11759106_at) / Fold change /veh NKD1 (11759106_at) / RFU SRD5A1 (11742802_a_at) / Fold change /veh SRD5A1 (11742802_a_at) / RFU TPSAB1 /// TPSB2 (11721975_s_at) / Fold change /veh TPSAB1 /// TPSB2 (11721975_s_at) / RFU GSTM3 (11746129_a_at) / Fold change /veh GSTM3 (11746129_a_at) / RFU IL23R (11737362_x_at) / Fold change /veh IL23R (11737362_x_at) / RFU TMEM51 (11727254_a_at) / Fold change /veh TMEM51 (11727254_a_at) / RFU PIWIL2 (11732686_x_at) / Fold change /veh PIWIL2 (11732686_x_at) / RFU ORM1 (11744905_x_at) / Fold change /veh ORM1 (11744905_x_at) / RFU CCDC152 (11743942_at) / Fold change /veh CCDC152 (11743942_at) / RFU ECM1 (11717891_a_at) / Fold change /veh ECM1 (11717891_a_at) / RFU IL23R (11748794_a_at) / Fold change /veh IL23R (11748794_a_at) / RFU TNFAIP8L3 (11732012_x_at) / Fold change /veh TNFAIP8L3 (11732012_x_at) / RFU MBOAT4 (11741988_at) / Fold change /veh MBOAT4 (11741988_at) / RFU 11764193_at / Fold change /veh 11764193_at / RFU TMEM53 (11763286_at) / Fold change /veh TMEM53 (11763286_at) / RFU MAGEB2 (11727129_at) / Fold change /veh MAGEB2 (11727129_at) / RFU TMEM200A (11744735_a_at) / Fold change /veh TMEM200A (11744735_a_at) / RFU CCDC152 (11751479_a_at) / Fold change /veh CCDC152 (11751479_a_at) / RFU FAM211A (11726209_a_at) / Fold change /veh FAM211A (11726209_a_at) / RFU RGS16 (11746705_a_at) / Fold change /veh RGS16 (11746705_a_at) / RFU VCAN (11755009_s_at) / Fold change /veh VCAN (11755009_s_at) / RFU RHOB (11743442_s_at) / Fold change /veh RHOB (11743442_s_at) / RFU RGS16 (11720943_a_at) / Fold change /veh RGS16 (11720943_a_at) / RFU RGS16 (11720944_at) / Fold change /veh RGS16 (11720944_at) / RFU, VPS4B / Fold change vs veh, VPS4B / RFU, CREB1 / Fold change vs veh, CREB1 / RFU, DNAJC13 / Fold change vs veh, DNAJC13 / RFU, GNAQ / Fold change vs veh, GNAQ / RFU, CDK5R1 / Fold change vs veh, CDK5R1 / RFU, ZRANB3 / Fold change vs veh, ZRANB3 / RFU, CUL4A / Fold change vs veh, CUL4A / RFU, CCNY / Fold change vs veh, CCNY / RFU, UFL1 / Fold change vs veh, UFL1 / RFU, COG3 / Fold change vs veh, COG3 / RFU, DIAPH2 / Fold change vs veh, DIAPH2 / RFU, SKA2 / Fold change vs veh, SKA2 / RFU, AFF3 / Fold change vs veh, AFF3 / RFU, LMF1 / Fold change vs veh, LMF1 / RFU, IPO11 / Fold change vs veh, IPO11 / RFU, DFFB / Fold change vs veh, DFFB / RFU, FOXP1 / Fold change vs veh, FOXP1 / RFU, CARD8 / Fold change vs veh, CARD8 / RFU, STRN3 / Fold change vs veh, STRN3 / RFU, ADK / Fold change vs veh, ADK / RFU, RASSF2 / Fold change vs veh, RASSF2 / RFU, WIPF1 / Fold change vs veh, WIPF1 / RFU, LARP1B / Fold change vs veh, LARP1B / RFU, RASA1 / Fold change vs veh, RASA1 / RFU, RB1 / Fold change vs veh, RB1 / RFU, PPFIA1 / Fold change vs veh, PPFIA1 / RFU, MAT2A / Fold change vs veh, MAT2A / RFU, CCT5 / Fold change vs veh, CCT5 / RFU, WDR92 / Fold change vs veh, WDR92 / RFU, CUX1 / Fold change vs veh, CUX1 / RFU, TTC7A / Fold change vs veh, TTC7A / RFU, TMEM135 / Fold change vs veh, TMEM135 / RFU, DEPTOR / Fold change vs veh, DEPTOR / RFU, CPM / Fold change vs veh, CPM / RFU, DNAJB6 / Fold change vs veh, DNAJB6 / RFU, CACNA2D3 / Fold change vs veh, CACNA2D3 / RFU, DTX4 / Fold change vs veh, DTX4 / RFU, TFCP2 / Fold change vs veh, TFCP2 / RFU, GMCL1 /// GMCL1P1 / Fold change vs veh, GMCL1 /// GMCL1P1 / RFU, AEBP2 / Fold change vs veh, AEBP2 / RFU, SNHG1 /// SNORD22 /// SNORD25 /// SNORD26 /// SNORD27 /// SNORD28 /// SNORD29 /// SNORD31 / Fold change vs veh, SNHG1 /// SNORD22 /// SNORD25 /// SNORD26 /// SNORD27 /// SNORD28 /// SNORD29 /// SNORD31 / Fold change (Aza/veh), C12orf56 (ProbeSet 11735607_a_at) / Fold change (ACY-1035/veh), C12orf56 (ProbeSet 11735607_a_at) / Fold change (Aza/veh), FGFR1OP (ProbeSet 11751329_s_at) / Fold change (ACY-1035/veh), FGFR1OP (ProbeSet 11751329_s_at) / Fold change (Aza/veh), VPS36 (ProbeSet 11739960_a_at) / Fold change (ACY-1035/veh), VPS36 (ProbeSet 11739960_a_at) / RFU SYPL1 (11715823_x_at) / Fold change /veh SYPL1 (11715823_x_at) / RFU IGFBP7 (11715501_s_at) / Fold change /veh IGFBP7 (11715501_s_at) / RFU REEP3 (11722064_at) / Fold change /veh REEP3 (11722064_at) / RFU IGLL1 (11728026_x_at) / Fold change /veh IGLL1 (11728026_x_at): dose or concentration left out as unconfirmed
Details: ProbeSet 11753234_a_at; LIST B

## Nc1ncn([C@@H]2O[C@H](CO)[C@@H](O)[C@H]2O)c(=O)n1 [azacitidine]
  Fold change vs veh, TAMM41: 0.86
